In one data set the target is T1, Gal4DBD/AaEcR (DEF) (Aedes aegypti, UniProt P49880).
T1 construct: The wildtype D, E, and F domains from mosquito Aedes aegypti EcR; expressed in transfected cells; host or cells: 3T3 cells
Kind of data set: cell-based. It counts as cell-based. The following applies: 33 μM; 3T3 cells; 48 h; average of two wells. The method, then:
3T3 cells were trypsinized and plated at 2.5×10^3 cells/well on a 96-well plate. After incubation for 24 h at 37° C. under 5% CO2, cells were transfected with the Gal4DBD/AaEcR (DEF) gene expression cassette and the reporter plasmid, pFRLuc, containing a 5× GAL4 response element and the firefly luciferase gene in serum free media using Superfect (Qiagen). After transfection for 4 h at 37° C., the cells were treated with ligand in serum media. […] Single dose testing was performed at 33 μM.

Data set [1] concerns the target T2, Bombyx mori EcR (VP16-BmEcR, CVBE) (Bombyx mori, UniProt P49881).
T2 construct: expressed in transfected cells
T2 sequence (P49881 86-606): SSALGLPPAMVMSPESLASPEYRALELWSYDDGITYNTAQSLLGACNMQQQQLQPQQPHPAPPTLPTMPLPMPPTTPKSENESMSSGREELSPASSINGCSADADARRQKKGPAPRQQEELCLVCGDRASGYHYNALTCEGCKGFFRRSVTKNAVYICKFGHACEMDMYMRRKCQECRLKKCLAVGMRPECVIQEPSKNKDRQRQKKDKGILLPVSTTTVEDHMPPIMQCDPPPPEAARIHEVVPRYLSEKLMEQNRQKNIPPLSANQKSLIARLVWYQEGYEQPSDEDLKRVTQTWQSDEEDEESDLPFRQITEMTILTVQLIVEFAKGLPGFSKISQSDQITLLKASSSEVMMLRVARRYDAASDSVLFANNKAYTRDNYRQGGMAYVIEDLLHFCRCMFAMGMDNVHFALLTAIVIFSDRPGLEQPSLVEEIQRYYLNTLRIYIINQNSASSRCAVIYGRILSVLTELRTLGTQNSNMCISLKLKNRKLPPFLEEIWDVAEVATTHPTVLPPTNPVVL
The data set is described as follows: Z3 assay (HEK-293 clone Z3 with CVBE and 6x EcRE LacZ, β-galactosidase reporter). It counts as cell-based. The note with it: 48 h, average of two wells. From the text: Dr. F. Gage provided a population of stably transformed cells containing CVBE and 6× EcRE as described in (Suhr et. al. 1998). Human 293 kidney cells, also referred to as HEK-293 cells, were sequentially infected with retroviral vectors encoding first the switch construct CVBE, and subsequently the reporter construct 6× EcRE Lac Z. The switch construct contained the coding sequence for amino acids 26-546 from Bombyx nori EcR (BE) (Iatrou) inserted in frame and downstream of the VP16 transactivation domain (VBE). A synthetic ATG start codon was placed under the control of cytomegalovirus (CVBE) immediate early promoter and flanked by long terminal repeats (LTR). The reporter-construct contained six copies of the ecdysone response element (EcRE) binding site placed upstream of LacZ and flanked on both sides with LTR sequences (6× EcRE).
Dilution cloning was used to isolate individual clones. Clones were selected using 450 μg/ml G418 and 100 ng/ml puromycin. Individual clones were evaluated based on their response in the presence and absence of test ligands.
Human 293 kidney cells stably transformed with CVBE and 6× EcRE lack were maintained in Minimum Essential Medium (Mediates, 10-010-CV) containing 10%.FBS (Life Technologies, 26140-087),[…] G418 (Mediates, 30-234-CR), and […] (Sigma, P-7255), at 37° C. in an atmosphere containing 5% CO2 and were subculture when they reached 75% confluence.
Z3 cells were seeded into 96-well tissue culture plates at a concentration of 2.5×10^3 cells per well and incubated at 37° C. in 5% CO2 for twenty-four hours. Stock solutions of ligands were prepared in DMSO. Ligand stock solutions were diluted 100.fold in media and 50 μL of this diluted ligand solution (33 μM) was added to cells.
Reporter gene expression was evaluated 48 hours after treatment of cells, β-galactosidase activity was measured using Gal Screen™ bioluminescent reporter gene assay system from Tropix (GSY1000).
Flanking both constructs are long terminal repeats, G418 and puromycin are selectable markers, CMV is the cytomegalovirus promoter, VBE is coding sequence for amino acids 26-546 from Bombyx mori EcR inserted downstream of the VP16 transactivation domain, 6× EcRE is six copies of the ecdysone response element, lacZ encodes for the reporter enzyme β-galactosidase.

Consider 35 molecules from patent US20050228016A1, “TETRAHYDROQUINOLINES FOR MODULATING THE EXPRESSION OF EXOGENOUS GENES VIA AN ECDYSONE RECEPTOR COMPLEX” (priority 2002, published 2005).

T1 sequence (P28704 286-520 A311G/G315S/G445S/I449V): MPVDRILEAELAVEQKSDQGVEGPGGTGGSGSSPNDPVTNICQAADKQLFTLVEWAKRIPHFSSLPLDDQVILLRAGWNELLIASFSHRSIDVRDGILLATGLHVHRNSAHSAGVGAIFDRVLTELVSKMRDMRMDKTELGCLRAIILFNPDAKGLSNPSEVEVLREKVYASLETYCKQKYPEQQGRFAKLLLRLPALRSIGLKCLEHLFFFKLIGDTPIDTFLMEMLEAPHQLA
T1 sequence (P49880 405-776): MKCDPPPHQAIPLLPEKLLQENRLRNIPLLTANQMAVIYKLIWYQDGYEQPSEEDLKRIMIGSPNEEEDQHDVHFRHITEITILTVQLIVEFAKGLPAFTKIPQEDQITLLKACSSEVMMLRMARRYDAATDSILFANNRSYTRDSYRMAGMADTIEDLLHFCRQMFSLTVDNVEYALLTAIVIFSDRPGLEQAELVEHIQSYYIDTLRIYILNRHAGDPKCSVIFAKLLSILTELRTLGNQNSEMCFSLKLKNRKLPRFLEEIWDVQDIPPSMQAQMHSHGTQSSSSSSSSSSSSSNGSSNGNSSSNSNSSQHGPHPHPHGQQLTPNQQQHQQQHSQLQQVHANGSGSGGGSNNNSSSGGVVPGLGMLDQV

With `Cc1ccc(C(=O)N2c3ccccc3C(Nc3ccc(F)cc3)CC2C)cc1` (mixture of isomers) [Compound I-40], the “Fold Induction Average, AA_3T3V1 Assay 33 μM” value at Gal4DBD/AaEcR (DEF) is given as 81 fold. The “Fold Induction Average, Z3V1 Assay 33 μM” value in data set [1] was determined as 24 fold.
For `Cc1ccc(C(=O)N2c3ccccc3C(Nc3cccc(Cl)c3)CC2C)cc1` (mixture of isomers) [Compound I-42], the “Fold Induction Average, AA_3T3V1 Assay 33 μM” value on Gal4DBD/AaEcR (DEF) is 80 fold. For the same molecule, the “Fold Induction Average, Z3V1 Assay 33 μM” value in data set [1] was found to be 1 fold.
The matching figures for `Cc1ccc(C(=O)N2c3ccccc3C(Nc3ccc(Cl)cc3)CC2C)cc1` (mixture of isomers) [Compound I-43]: 114 fold and 3 fold.
In the case of `Cc1ccc(NC2CC(C)N(C(=O)c3ccc(C)cc3)c3ccccc32)cc1` (mixture of isomers) [Compound I-45], the “Fold Induction Average, AA_3T3V1 Assay 33 μM” value at Gal4DBD/AaEcR (DEF) was 67 fold. For the same molecule, in data set [1], the “Fold Induction Average, Z3V1 Assay 33 μM” value was 3 fold.
In the same order, the values of `COc1ccc(NC2CC(C)N(C(=O)c3ccc(C)cc3)c3ccccc32)cc1` (mixture of isomers) [Compound I-47] are 81 fold and 2 fold.
Turning to `CCCCCCC(=O)N1c2ccccc2[C@@H](Nc2ccccc2)C[C@@H]1C` (relative stereo) [Compound I-1], the “Fold Induction Average, Z3V1 Assay 33 μM” value in data set [1] was 10 fold.
Take `C[C@H]1C[C@@H](Nc2ccc(F)cc2)c2cc(F)ccc2N1C(=O)c1ccc(F)c(C(F)(F)F)c1` (relative stereo) [Compound I-4]: the “Fold Induction Average, AA_3T3V1 Assay 33 μM” value on Gal4DBD/AaEcR (DEF) came to 4 fold. In addition, the “Fold Induction Average, Z3V1 Assay 33 μM” value in data set [1] worked out at 1 fold.
In the same order, the values of `Cc1ccc(C(=O)N2c3ccccc3[C@H](Nc3ccccc3)C[C@@H]2C)cc1F` (relative stereo) [Compound I-19] are 70 fold and 1 fold.
The matching figures for `Cc1ccc(N[C@H]2C[C@H](C)N(C(=O)c3ccc(F)c(F)c3)c3ccc(C)cc32)cc1` (relative stereo) [Compound I-21]: 52 fold and 1 fold.
In the case of `Cc1ccc(N[C@H]2C[C@H](C)N(C(=O)c3ccc(C(F)(F)F)c(F)c3)c3ccc(C)cc32)cc1` (relative stereo) [Compound I-23], on Gal4DBD/AaEcR (DEF), the “Fold Induction Average, AA_3T3V1 Assay 33 μM” value was found to be 87 fold. Moreover, the “Fold Induction Average, Z3V1 Assay 33 μM” value in data set [1] amounted to 1 fold.
The matching figures for `C[C@H]1C[C@@H](Nc2ccc(F)cc2)c2cc(F)ccc2N1C(=O)c1ccc(F)c(F)c1` (relative stereo) [Compound I-24]: 132 fold and 7 fold.
In the same order, the values of `C[C@H]1C[C@@H](Nc2ccc(F)cc2)c2cc(F)ccc2N1C(=O)c1ccc(C(F)(F)F)c(F)c1` (relative stereo) [Compound I-25] are 147 fold and 1 fold.
The matching figures for `CCc1ccc(C(=O)N2c3ccc(C)cc3[C@@H](Nc3ccc(C)cc3)C[C@@H]2C)cc1` (relative stereo) [Compound I-64]: 681 fold and 1 fold.
`C[C@H]1C[C@H](Nc2ccc(F)cc2)c2cc(F)ccc2N1C(=O)c1ccc(Cl)cc1` (relative stereo) [Compound I-65]: at Gal4DBD/AaEcR (DEF), the “Fold Induction Average, AA_3T3V1 Assay 33 μM” value was 345 fold. In data set [1], the “Fold Induction Average, Z3V1 Assay 33 μM” value is 82 fold.
In the same order, the values of `CCc1ccc(C(=O)N2c3ccc(F)cc3[C@@H](Nc3ccc(F)cc3)C[C@@H]2C)cc1` (relative stereo) [Compound I-66] are 813 fold and 206 fold.
The matching figures for `C[C@H]1C[C@H](Nc2ccccc2)c2ccccc2N1C(=O)c1ccccc1` (relative stereo) [Compound I-67]: 20 fold and 1 fold.
For the molecule `C[C@H]1C[C@H](Nc2ccccc2)c2ccccc2N1C(=O)c1cccc(F)c1` (relative stereo) [Compound I-68], at Gal4DBD/AaEcR (DEF), the “Fold Induction Average, AA_3T3V1 Assay 33 μM” value was 282 fold. Further, the “Fold Induction Average, Z3V1 Assay 33 μM” value in data set [1] stood at 8 fold.
The matching figures for `C[C@H]1C[C@H](Nc2ccccc2)c2ccccc2N1C(=O)c1ccccc1C(F)(F)F` (relative stereo) [Compound I-69]: 2 fold and 1 fold.
In the same order, the values of `C[C@H]1C[C@H](Nc2ccccc2)c2ccccc2N1C(=O)c1cccc(C(F)(F)F)c1` (relative stereo) [Compound I-70] are 376 fold and 26 fold.
With `CCCC(=O)N1c2ccccc2C(N(C(=O)c2cccc(OC)c2)c2ccccc2)CC1C` (centres unmarked) [Compound I-160], the “Fold Induction Average, Z3V1 Assay 33 μM” value in data set [1] came to 1 fold.
Still for that read-out and setting: for `CC1CC(Nc2ccccc2)c2ccccc2N1C(=O)Cc1cccc2ccccc12` (centres unmarked) [Compound I-169] the value was 1 fold.
Regarding `CC1CC(Nc2ccccc2)c2ccccc2N1C(=O)c1cccc(C(F)(F)F)c1` (centres unmarked) [Compound I-201], the “Fold Induction Average, AA_3T3V1 Assay 33 μM” value at Gal4DBD/AaEcR (DEF) came out at 71 fold.
The same measure, in the same setting: for `Cc1ccc(NC2CC(C)N(C(=O)c3cccc(F)c3)c3ccc(C)cc32)cc1` (centres unmarked) [Compound I-203] the value was 3 fold; for `COc1cccc(C(=O)N2c3ccc(C)cc3C(Nc3ccc(C)cc3)CC2C)c1` (centres unmarked) [Compound I-204], 1 fold; for `Cc1cccc(C(=O)N2c3ccc(F)cc3C(Nc3ccc(F)cc3)CC2C)c1` (centres unmarked) [Compound I-206], 142 fold.
Regarding `CC1CC(Nc2ccc(F)cc2)c2cc(F)ccc2N1C(=O)c1cccc(F)c1` (centres unmarked) [Compound I-207], the “Fold Induction Average, AA_3T3V1 Assay 33 μM” value on Gal4DBD/AaEcR (DEF) turned out to be 108 fold.
Still for that read-out and setting: the figure for `COc1cccc(C(=O)N2c3ccc(F)cc3C(Nc3ccc(F)cc3)CC2C)c1` (centres unmarked) [Compound I-208] is 989 fold; for `CC1CC(Nc2ccc(F)cc2)c2cc(F)ccc2N1C(=O)c1cccc(C(F)(F)F)c1` (centres unmarked) [Compound I-209] it is 384 fold.
Take `CC1CC(Nc2ccccc2)c2ccccc2N1C(=O)Nc1ccccc1` (centres unmarked) [Compound I-211]: the “Fold Induction Average, AA_3T3V1 Assay 33 μM” value at Gal4DBD/AaEcR (DEF) is 638 fold.
On the same count and under the same terms, the figure for `CC1CC(Nc2ccccc2)c2ccccc2N1C(=O)Nc1ccc(Cl)cc1` (centres unmarked) [Compound I-212] is 367 fold; for `CC1CC(Nc2ccccc2)c2ccccc2N1C(=O)Nc1cccc(Cl)c1` (centres unmarked) [Compound I-213] it is 527 fold.
Still for that read-out and setting: for `Cc1cccc(NC(=O)N2c3ccccc3C(Nc3ccccc3)CC2C)c1` (centres unmarked) [Compound I-215] the value was 1052 fold; for `Cc1ccc(NC2CC(C)N(C(=O)Nc3ccccc3)c3ccc(C)cc32)cc1` (centres unmarked) [Compound I-216], 2 fold.
Still for that read-out and setting: the figure for `Cc1ccc(NC2CC(C)N(C(=O)Nc3ccc(Cl)cc3)c3ccc(C)cc32)cc1` (centres unmarked) [Compound I-217] is 8 fold.
Turning to “trans-2-methyl-6-fluoro-1-(3-fluoro-4-methylbenzoyl)-4-(4-methylphenylamino), 4-(3-fluoro-4-methylbenzoyl)-1,2,3,4-tetrahydroquinoline [Compound I-196]”, on Gal4DBD/AaEcR (DEF), the “Fold Induction Average, AA_3T3V1 Assay 33 μM” value came to 1 fold.
